In PMC8348142, “Antimicrobial Peptide Modifications against Clinically Isolated Antibiotic-Resistant Salmonella” (Molecules, 2021):
Marks after values point to notes of the source that are not given here. Ends that are not written are not given here.

Assays:
Type in all cases: cell-based
[1] = tested on: clinical Salmonella isolates; test: MIC, broth microdilution; conditions: MHB, 5 × 10^5 CFU/mL, 37 °C, 18 h, duplicate
Description: (§1) All 12 isolates of Salmonella used in this study were clinical isolates and anonymous left-overs from laboratory diagnoses. They were maintained in a 20% glycerol (Sigma-Aldrich) stock at −80 °C and further cultured on Mueller-Hinton agar (MHA, Oxoid, Hampshire, UK) at 37 °C for 18 h to obtain single colonies for antimicrobial assays. This study was approved by the Ethics Committee of the Faculty of Tropical Medicine (Mahidol University, Bangkok, Thailand; MUTM-EXMPT 2017-007).
MIC was determined using the broth microdilution method described by Hancock with some modifications. Briefly, bacterial colonies grown from the MHA were prepared in MHB (Oxoid) as a 0.5 McFarland suspension (which is equal to 1 × 10^8 CFU/mL), and was further 200-fold diluted by the MHB (5 × 10^5 CFU/mL). The bacterial suspension (50 µL) was mixed with 2-fold serial dilutions of peptide (5.5 µL) achieving final concentrations of 256 to 1 µM using a round-bottom polypropylene (PP) 96-well plate (Greiner Bio-One). The plate was incubated at 37 °C for 18 h including incubating peptide free-bacteria as positive growth control, and MHB as negative growth control. After the incubation, the lowest concentration with no visible growth was defined as a MIC value. The assay was performed in a duplicate manner.

[2] = tested on: clinical Salmonella isolates; test: MBC, drop plate method, and MBC/MIC mode of action; conditions: for MBC: drop plate on MHA from MIC plate, 37 °C, 18 h, thrice
Description: as §1
The plate derived from the MIC assay was immediately tested for the MBC using a drop plate method. A volume of 10 µL of the culture from individual wells at MIC, 2MIC, and 4MIC was dropped on MHA plates. […] The experiment was thrice performed.
In order to determine whether the peptides have bacteriostatic or bactericidal activity, a ratio of MBC to MIC (MBC/MIC) was applied. The ratio >4 was indicative of bacteriostatic peptide, and ≤4 was inferred as bactericidal peptide.

sheep red blood cells = test: Hemolytic activity assay; conditions: for percent hemolysis: 2% sRBCs in PBS, 37 °C, 1 h, OD540, triplicate mean
Description: The peptide toxicity to the mammalian system was screened based on the hemolytic test by measuring the hemoglobin released from ruptured red blood cells (RBCs). In this study, sheep RBCs (sRBCs) were employed. They were thrice washed and prepared as a suspension in phosphate-buffered saline (PBS, Oxoid). A suspension of 2% sRBCs was incubated with 2-fold serial dilutions of peptide (final concentrations; 256 to 1 µM in a total volume of 200 µL) at 37 °C for 1 h. The solutions of 0.1% (final concentration) Triton X-100 (Sigma-Aldrich) and PBS containing the peptide solvent were used instead of the peptides as the controls of hemolysis at 100% and 0%, respectively. Thereafter, the post-incubated suspensions were centrifuged (1000× g, 3 min) to pelletize residual sRBCs. The supernatants were then transferred into a flat-bottom PS 96-well plate and were measured the absorbance at 540 nm (OD540) by a microplate reader. The test was conducted in triplicate and the mean OD540 was used to calculate the hemolysis (%) as; ((OD540 (peptide) − OD540 (PBS + peptide solvent))/(OD540 (0.1% Triton X-100) − OD540 (PBS + peptide solvent))) × 100. The hemolytic concentration 50 (HC50), a concentration inducing 50% hemolysis, was determined.
The GraphPad Prism version 7.00 (GraphPad Software, La Jolla, CA, USA) was applied for all statistical analyses and data visualizations. Replicate quantitative results were calculated and shown as mean ± SD, unless otherwise specified. The HC50 values were determined using nonlinear regression analysis. The paired t-test and repeated measures one-way ANOVA with Tukey’s multiple comparison test were applied to compare between 2 groups and among 3 or more groups, respectively. The comparisons were considered as a statistically significant difference when a p-value < 0.05.

Substance: FFFIRRIARLLRRIF-NH2 [2F-Kn2-5R-NH2]
- MIC ([1]; isolate 5 (Enteritidis, blood; resistant AMP, SXT, KZ)): 4 µM
- MIC ([1]; isolate 7 (Typhimurium, blood; resistant AMP, CN, TE, NA, SXT)): 4 µM
- MIC ([1]; isolate 11 (I 1,4:i:-, blood; resistant AMP, TE, NA, SXT, C)): 4 µM
- MIC ([1]; isolate 18 (Stanley, urine; resistant TE, SXT, C)): 8 µM
- MIC ([1]; isolate 26 (Typhimurium, urine; resistant TZP, TE, NA)): 8 µM
- MIC ([1]; isolate 27 (Typhimurium, stool; resistant AMP, TE, NA, SXT, CIP)): 8 µM
- MIC ([1]; isolate 55 (Typhimurium, blood; resistant AMP, SXT, C, TE)): 8 µM
- MIC ([1]; isolate 61 (Enteritidis, blood; resistant AMP, TE, NA, SXT)): 4 µM
- MIC ([1]; isolate 69 (Typhimurium, stool; resistant AMP)): 4 µM
- MIC ([1]; isolate 76 (Enteritidis, CSF; resistant NA)): 8 µM
- MIC ([1]; isolate 78 (Enteritidis, blood; resistant TE, CIP, NA, SXT)): 8 µM
- MIC ([1]; isolate 107 (Typhimurium, stool; susceptible)): 4 µM
- GM of MBC ([2]; geometric mean over 12 clinical Salmonella isolates): 5.66 µM
- MBC ([2]; isolate 5 (Enteritidis)): 4 µM
- MBC ([2]; isolate 7 (Typhimurium)): 4 µM
- MBC ([2]; isolate 11 (I 1,4:i:-)): 4 µM
- MBC ([2]; isolate 18 (Stanley)): 8 µM
- MBC ([2]; isolate 26 (Typhimurium)): 8 µM
- MBC ([2]; isolate 27 (Typhimurium)): 8 µM
- MBC ([2]; isolate 55 (Typhimurium)): 8 µM
- MBC ([2]; isolate 61 (Enteritidis)): 4 µM
- MBC ([2]; isolate 69 (Typhimurium)): 4 µM
- MBC ([2]; isolate 76 (Enteritidis)): 8 µM
- MBC ([2]; isolate 78 (Enteritidis)): 8 µM
- MBC ([2]; isolate 107 (Typhimurium)): 4 µM
- HC50 (hemolytic concentration 50) (sheep red blood cells; concentration inducing 50% hemolysis of sRBCs, nonlinear regression, unit (µM)): 5.60 µM
- percent hemolysis (sheep red blood cells; peptide 1 µM): 6.1%
- percent hemolysis (sheep red blood cells; peptide 2 µM): 15%
- percent hemolysis (sheep red blood cells; peptide 4 µM): 33.7 * %
- percent hemolysis (sheep red blood cells; peptide 8 µM): 61.6 * %
- percent hemolysis (sheep red blood cells; peptide 16 µM): 96.2%
- percent hemolysis (sheep red blood cells; peptide 32 µM): 97.6%
- percent hemolysis (sheep red blood cells; peptide 64 µM): 97.9%
- percent hemolysis (sheep red blood cells; peptide 128 µM): 99.8%
- percent hemolysis (sheep red blood cells; peptide 256 µM): 100%
- concentration required for the initiation of hemolysis (sheep red blood cells; sRBCs, 60 min, 256–1 µM tested): 1 µM
